This note sets out measurements from US9096593B2, “Compounds and methods for kinase modulation, and indications therefor” (Plexxikon Inc., priority 2009, dated 2015).

The structures appear in SMILES notation. Like-named read-outs stand apart in the source and are kept apart here.

Series [1] can be described thus: Turbidity assay of relative solubility in aqueous buffers. The settings on record: for turbidity threshold (L, M, H) 1.4: pH 1.4 as headed (method: SGF pH 1.5); for turbidity threshold (L, M, H) 4.5: pH 4.5 (SIF); for turbidity threshold (L, M, H) 6.8: pH 6.8 (SIF); for turbidity threshold (L, M, H) 7.4: pH 7.4 (HEPES). It counts as physicochemical. The protocol: As an indication of relative solubility, the turbidity of compounds in aqueous solutions is assessed. To assess possible compound properties in different physiological compartments, such as stomach, intestine, and blood, a series of aqueous buffers with varying pH is used. Thus each compound is diluted into four different physiologically relevant buffers and solution turbidity is measured by spectrophotometry.
Compounds are dissolved at a concentration of 25 mM in dimethyl sulfoxide, then serially diluted 1:1 into a 96 well plate, diluting 10 times in pure dimethyl sulfoxide, with the final well of each row a dimethyl sulfoxide blank. In an assay plate, 99 μL of appropriate buffer is added to each well, and 1 μL of each sample dilution is added to the buffer, achieving a range of final total concentrations in aqueous solutions having different pH. The buffers used are Simulated Gastric Fluid (SGF-pH 1.5) 0.5M NaCl, pH 1.5; Simulated Intestinal fluid (SIF-pH 4.5 and pH 6.8) 0.05M NaH2PO4, pH 4.5 and 6.8; and Hepes Buffer (HEPES-pH 7.4) 10 mM HEPES, 150 mM NaCl, pH 7.4. Control compounds pyrene, estriol and propranolol HCl are also assessed. Plates are spun and then mixed for 1 minute, and the absorbance is read using a Tecan Safire II to read wavelengths in the visible range (490, 535, and 650 nm) at four locations per well, reflecting the degree of turbidity present. The average optical density for each wavelength in each well is graphed vs. compound concentration, and the concentration at which the curve crosses a threshold O.D. of 0.01 for each wavelength is reported as the endpoint turbidity assay result. The average of the three wavelengths is used to compare turbidity of compounds. Compounds are considered to have low solubility if the threshold concentration is <31.3 μM, moderate solubility if the threshold concentration is 31.3 μM to 250 μM, and high solubility if the threshold concentration is >250 μM.

Series [2] deals with CYP1A2 (Homo sapiens (Human), UniProt P05177). Put plainly: CYP enzyme inhibition, fluorescent substrate. The settings on record: human, 15 min. On the procedure:
(§1) CYP (Cytochrome P450) enzymes are the major drug metabolizing enzymes present in the liver. The inhibition of CYP enzyme activity (IC50) for each of CYP1A2, CYP2C19, CYP2C9, CYP2D6, CYP3A4(BFC) and CYP3A4(BQ) is determined for compounds, where inhibition of metabolism of a known substrate leads to a decrease in the fluorescence of the metabolized product. The fluorescence of the product is monitored as a function of compound concentration.
(§2) Compounds are dissolved in DMSO to a concentration of 100 mM. These are diluted 1 μL into 82 μL of acetonitrile. An 11 μL aliquot of this solution is then added to 204 μL of cofactor mix (1.3% NADPH Regeneration system Solution A, 1.04% NADPH Regeneration system Solution B from BD Biosciences, 5% acetonitrile and 0.05% DMSO). These are then serially diluted 1:1 (160 μL to 160 μL co-factor mix) for a total of 10 points. A 10 μL aliquot of this final mixture is dispensed into 384 well assay plates and incubated for 10 minutes at 37° C. Enzyme and substrate mix (10 μL; […] CYP1A2/5 μM CEC; 1.0 μmol CYP2C9/75 μM MFC; […] CYP2C19/25 μM CEC; 1.5 μmol CYP2D6/1.5 μM AMMC; 1.0 μmol CYP3A4/50 μM BFC; or 1.0 μmol CYP3A4/40 μM BQ) is added to these assay plates. Assay plates are incubated at 37° C. (CYP1A2-15 min; CYP2C9-45 min; CYP2C19, 2D6 and 3A4-30 min) and read in a Tecan Safire 2 plate reader (CYP1A2, 2C19 and 3A4 409 ex/460 em; CYP2C9 and 2D6409 ex/530 em). The signal versus compound concentration is used to determine the IC50. The enzymes and substrates for this assay are obtained from BD Biosciences.

Series [3] concerns the target CYP2C9 (Homo sapiens (Human), UniProt P11712). Description: CYP enzyme inhibition, fluorescent substrate. The protocol:
as §1, §2

The target in series [4] is CYP2D6 (Homo sapiens (Human), UniProt P10635). Put plainly: CYP enzyme inhibition, fluorescent substrate. The settings on record: read-out: Cyp IC50 (μM) 2D6. On the procedure: as §1, §2
Series [5] addresses CYP3A4(BFC) (Homo sapiens (Human), UniProt P08684). Put plainly: CYP enzyme inhibition, fluorescent substrate. The protocol: as §1, §2
Series [6] addresses CYP3A4(BQ) (Homo sapiens (Human), UniProt P08684). Put plainly: CYP enzyme inhibition, fluorescent substrate. The protocol: as §1, §2
The target in series [7] is CYP2C19 (Homo sapiens (Human), UniProt P33261). Description: CYP enzyme inhibition, fluorescent substrate. On the procedure:
as §1, §2

[8] abbreviates: human, CYP2C9 enzyme (BD Biosciences), 45 min.
[9] abbreviates: read-out: Cyp IC50 (μM) 3A4(BFC), BFC substrate.
Where [10] appears, read: read-out: Cyp IC50 (μM) 3A4(BQ), BQ substrate.

By IC50 is commonly meant the point on the concentration scale where inhibition reaches its midpoint.

CYP2D6, sequence (P10635 whole entry): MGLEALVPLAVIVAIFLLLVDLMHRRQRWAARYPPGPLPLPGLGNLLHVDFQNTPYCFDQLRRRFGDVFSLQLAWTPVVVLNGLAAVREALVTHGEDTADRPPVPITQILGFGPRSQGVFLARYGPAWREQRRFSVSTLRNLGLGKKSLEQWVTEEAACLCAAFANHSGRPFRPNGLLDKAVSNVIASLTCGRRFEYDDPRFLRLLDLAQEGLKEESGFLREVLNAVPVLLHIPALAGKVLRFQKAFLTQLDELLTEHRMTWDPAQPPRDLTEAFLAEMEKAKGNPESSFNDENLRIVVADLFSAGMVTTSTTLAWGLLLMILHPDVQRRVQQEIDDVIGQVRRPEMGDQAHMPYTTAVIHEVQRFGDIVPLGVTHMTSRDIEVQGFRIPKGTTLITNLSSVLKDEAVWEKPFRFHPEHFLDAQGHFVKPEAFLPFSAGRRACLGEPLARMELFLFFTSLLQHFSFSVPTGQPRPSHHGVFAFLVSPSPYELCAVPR
CYP1A2, sequence (P05177 whole entry): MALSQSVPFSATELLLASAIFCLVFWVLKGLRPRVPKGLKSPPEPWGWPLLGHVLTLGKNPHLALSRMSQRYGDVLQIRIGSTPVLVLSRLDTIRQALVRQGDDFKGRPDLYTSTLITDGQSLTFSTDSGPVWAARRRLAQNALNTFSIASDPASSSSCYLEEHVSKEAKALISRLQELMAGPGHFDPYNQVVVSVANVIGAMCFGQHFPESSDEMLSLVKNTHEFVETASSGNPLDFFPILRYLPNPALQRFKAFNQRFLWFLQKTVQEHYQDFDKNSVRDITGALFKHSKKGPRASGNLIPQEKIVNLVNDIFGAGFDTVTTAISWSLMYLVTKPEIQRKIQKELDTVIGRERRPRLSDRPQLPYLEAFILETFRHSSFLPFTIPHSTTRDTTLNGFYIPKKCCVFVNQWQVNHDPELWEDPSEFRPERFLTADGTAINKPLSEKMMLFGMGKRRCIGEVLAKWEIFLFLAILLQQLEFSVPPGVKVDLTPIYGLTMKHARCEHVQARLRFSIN
CYP2C9, sequence (P11712 whole entry): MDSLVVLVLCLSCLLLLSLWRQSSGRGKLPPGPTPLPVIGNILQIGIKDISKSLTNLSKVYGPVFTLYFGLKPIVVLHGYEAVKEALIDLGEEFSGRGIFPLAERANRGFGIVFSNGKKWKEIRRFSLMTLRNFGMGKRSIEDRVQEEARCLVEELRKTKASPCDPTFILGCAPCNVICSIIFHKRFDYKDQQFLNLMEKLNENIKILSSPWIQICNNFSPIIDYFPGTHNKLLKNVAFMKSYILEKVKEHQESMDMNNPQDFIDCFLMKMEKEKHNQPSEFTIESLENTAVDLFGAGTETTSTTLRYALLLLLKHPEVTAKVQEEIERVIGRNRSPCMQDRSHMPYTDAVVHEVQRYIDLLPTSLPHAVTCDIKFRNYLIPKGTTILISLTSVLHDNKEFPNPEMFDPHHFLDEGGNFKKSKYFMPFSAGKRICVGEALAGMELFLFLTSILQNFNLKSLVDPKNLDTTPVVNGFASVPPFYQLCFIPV
CYP3A4(BQ), sequence (P08684 whole entry): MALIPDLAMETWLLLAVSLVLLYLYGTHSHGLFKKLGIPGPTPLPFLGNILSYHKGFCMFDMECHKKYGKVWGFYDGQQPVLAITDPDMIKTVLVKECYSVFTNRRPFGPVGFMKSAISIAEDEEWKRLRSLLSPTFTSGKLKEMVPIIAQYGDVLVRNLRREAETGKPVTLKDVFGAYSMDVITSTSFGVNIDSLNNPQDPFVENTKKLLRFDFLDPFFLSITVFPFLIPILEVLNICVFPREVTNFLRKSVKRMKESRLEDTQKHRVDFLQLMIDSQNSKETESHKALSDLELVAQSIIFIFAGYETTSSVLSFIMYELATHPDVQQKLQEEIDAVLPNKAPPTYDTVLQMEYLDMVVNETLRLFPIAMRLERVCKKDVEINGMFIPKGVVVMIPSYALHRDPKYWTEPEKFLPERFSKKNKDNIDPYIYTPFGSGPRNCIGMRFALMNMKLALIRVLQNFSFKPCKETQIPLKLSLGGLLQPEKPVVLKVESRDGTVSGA
CYP3A4(BFC), sequence (P08684 whole entry): as above
CYP2C19, sequence (P33261 whole entry): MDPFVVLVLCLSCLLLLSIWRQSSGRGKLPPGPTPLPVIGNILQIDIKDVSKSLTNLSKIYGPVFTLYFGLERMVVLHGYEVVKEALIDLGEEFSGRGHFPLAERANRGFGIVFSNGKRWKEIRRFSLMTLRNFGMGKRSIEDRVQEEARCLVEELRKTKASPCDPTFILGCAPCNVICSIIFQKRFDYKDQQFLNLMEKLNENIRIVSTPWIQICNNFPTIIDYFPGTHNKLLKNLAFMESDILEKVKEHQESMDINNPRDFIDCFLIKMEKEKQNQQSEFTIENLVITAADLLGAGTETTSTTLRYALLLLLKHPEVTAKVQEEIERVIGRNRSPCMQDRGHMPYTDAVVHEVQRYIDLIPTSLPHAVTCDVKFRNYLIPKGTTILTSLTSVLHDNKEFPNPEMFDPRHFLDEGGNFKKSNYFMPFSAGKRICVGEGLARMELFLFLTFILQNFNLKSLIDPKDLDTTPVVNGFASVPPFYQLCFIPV

For the compound `COc1ccc(CNc2ncc(Cc3c[nH]c4ncc(C)cc34)cc2C)cn1` [Compound P-1554, (6-Methoxy-pyridin-3-ylmethyl)-[3-methyl-5-(5-methyl-1H-pyrrolo[2,3-b]pyridin-3-ylmethyl)-pyridin-2-yl]-amine], in series [1], the “turbidity threshold (L, M, H) 1.4” value is listed as “H (high solubility if the threshold concentration is >250 μM)”; the “turbidity threshold (L, M, H) 4.5” value is reported as “H (high solubility if the threshold concentration is >250 μM)”; the “turbidity threshold (L, M, H) 6.8” value is given as “M (moderate solubility if the threshold concentration is 31.3 μM to 250 μM)”; the “turbidity threshold (L, M, H) 7.4” value was “M (moderate solubility if the threshold concentration is 31.3 μM to 250 μM)”.

With `COc1ccc(CNc2ccc(Cc3c[nH]c4ncc(F)cc34)c(F)n2)cn1` [Compound P-1622, [6-Fluoro-5-(5-fluoro-1H-pyrrolo[2,3-b]pyridin-3-ylmethyl)-pyridin-2-yl]-(6-methoxy-pyridin-3-ylmethyl)-amine], the “turbidity threshold (L, M, H) 1.4” value in series [1] is reported as “H (high solubility if the threshold concentration is >250 μM)”. Besides, in series [1], the “turbidity threshold (L, M, H) 4.5” value is listed as “M (moderate solubility if the threshold concentration is 31.3 μM to 250 μM)”. In addition, the “turbidity threshold (L, M, H) 6.8” value in series [1] is on record as “M (moderate solubility if the threshold concentration is 31.3 μM to 250 μM)”. Further, the “turbidity threshold (L, M, H) 7.4” value in series [1] is recorded as “M (moderate solubility if the threshold concentration is 31.3 μM to 250 μM)”. The IC50 is more than 10 µM in series [2]; 5 to 10 µM in series [3]; more than 10 µM in series [4]; 5 to 10 µM in series [5]; 5 to 10 µM in series [6].

As to `CS(=O)(=O)Nc1cnc2[nH]cc(Cc3ccc(NCc4ccc(Cl)nc4)nc3F)c2c1` [Compound P-1679, N-(3-{6-[(6-Chloro-pyridin-3-ylmethyl)-amino]-2-fluoro-pyridin-3-ylmethyl}-1H-pyrrolo[2,3-b]pyridin-5-yl)-methanesulfonamide], in series [1], the “turbidity threshold (L, M, H) 1.4” value was “M (moderate solubility if the threshold concentration is 31.3 μM to 250 μM)”; the “turbidity threshold (L, M, H) 4.5” value was “L (low solubility if the threshold concentration is <31.3 μM)”; the “turbidity threshold (L, M, H) 6.8” value is “L (low solubility if the threshold concentration is <31.3 μM)”; the “turbidity threshold (L, M, H) 7.4” value is reported as “L (low solubility if the threshold concentration is <31.3 μM)”. The same compound showed an IC50 in series [2] of more than 10 µM. This compound came in with an IC50 in series [3] (setting [8]) of less than 5 µM. Moreover, in series [4], the IC50 is more than 10 µM. In addition, the IC50 in series [5] (setting [9]) is more than 10 µM.

For the compound `COc1cnc2[nH]cc(Cc3ccc(NCc4cccnc4OC)nc3F)c2c1` [Compound P-2043, [6-Fluoro-5-(5-methoxy-1H-pyrrolo[2,3-b]pyridin-3-ylmethyl)-pyridin-2-yl]-(2-methoxy-pyridin-3-ylmethyl)-amine], the IC50 is more than 10 µM in series [2], 5 to 10 µM in series [3], more than 10 µM in series [5] (setting [9]) and 5 to 10 µM in series [6].

Take `COc1ncccc1CNc1ccc(Cc2c[nH]c3ncc(C)cc23)c(F)n1` [Compound P-2052, [6-Fluoro-5-(5-methyl-1H-pyrrolo[2,3-b]pyridin-3-ylmethyl)-pyridin-2-yl]-(2-methoxy-pyridin-3-ylmethyl)-amine]: the “turbidity threshold (L, M, H) 1.4” value in series [1] is “H (high solubility if the threshold concentration is >250 μM)”. Moreover, the “turbidity threshold (L, M, H) 4.5” value in series [1] is “L (low solubility if the threshold concentration is <31.3 μM)”. The “turbidity threshold (L, M, H) 6.8” value in series [1] was “L (low solubility if the threshold concentration is <31.3 μM)”. The “turbidity threshold (L, M, H) 7.4” value in series [1] is recorded as “L (low solubility if the threshold concentration is <31.3 μM)”. Further, the IC50 is more than 10 µM in series [2]; 5 to 10 µM in series [3]; more than 10 µM in series [4]; 5 to 10 µM in series [5]; 5 to 10 µM in series [6].

On to `COc1ncc(F)cc1CNc1ncc(Cc2c[nH]c3ncc(Cl)cc23)cn1` [Compound P-2064, [5-(5-Chloro-1H-pyrrolo[2,3-b]pyridin-3-ylmethyl)-pyrimidin-2-yl]-(5-fluoro-2-methoxy-pyridin-3-ylmethyl)-amine], for which, in series [1], the “turbidity threshold (L, M, H) 1.4” value was “H (high solubility if the threshold concentration is >250 μM)”. Also, the “turbidity threshold (L, M, H) 4.5” value in series [1] is “M (moderate solubility if the threshold concentration is 31.3 μM to 250 μM)”. For the same compound, the “turbidity threshold (L, M, H) 6.8” value in series [1] is given as “L (low solubility if the threshold concentration is <31.3 μM)”. The “turbidity threshold (L, M, H) 7.4” value in series [1] is recorded as “L (low solubility if the threshold concentration is <31.3 μM)”. Besides, the IC50 in series [2] was more than 10 µM; in series [3] it was 5 to 10 µM; in series [4] it was more than 10 µM; in series [5] (setting [9]) it was more than 10 µM; in series [6] (setting [10]), more than 10 µM.

In the case of `Cc1cnc2[nH]cc(Cc3cnc(NCc4ccc(Cl)nc4)nc3)c2c1` [Compound P-2078, (6-Chloro-pyridin-3-ylmethyl)-[5-(5-methyl-1H-pyrrolo[2,3-b]pyridin-3-ylmethyl)-pyrimidin-2-yl]-amine], the IC50 was more than 10 µM in series [2] (CYP1A2 enzyme (BD Biosciences)) and less than 5 µM in series [3] (human, 45 min).

As for `COc1ccc(CNc2ccc(Cc3c[nH]c4ncc(C)cc34)c(F)n2)c(OC)n1` [Compound P-2097, (2,6-Dimethoxy-pyridin-3-ylmethyl)-[6-fluoro-5-(5-methyl-1H-pyrrolo[2,3-b]pyridin-3-ylmethyl)-pyridin-2-yl]-amine], the IC50 in series [2] was more than 10 µM; in series [3] (setting [8]), less than 5 µM; in series [4], more than 10 µM; in series [5], 5 to 10 µM; in series [6], 5 to 10 µM.

As for `Cc1ccc(CNc2ccc(Cc3c[nH]c4ncc(C)cc34)c(F)n2)nc1` [Compound P-2131, [6-Fluoro-5-(5-methyl-1H-pyrrolo[2,3-b]pyridin-3-ylmethyl)-pyridin-2-yl]-(5-methyl-pyridin-2-ylmethyl)-amine], the IC50 in series [2] is more than 10 µM; in series [7], 5 to 10 µM; in series [3] (setting [8]) it was less than 5 µM; in series [5] (setting [9]), less than 5 µM; in series [6] (setting [10]), more than 10 µM.

For `Cn1cc(F)cc(CNc2ncc(Cc3c[nH]c4ncc(Cl)cc34)cn2)c1=O` [Compound P-2157, 3-{[5-(5-Chloro-1H-pyrrolo[2,3-b]pyridin-3-ylmethyl)-pyrimidin-2-ylamino]-methyl}-5-fluoro-1-methyl-1H-pyridin-2-one], the IC50 was more than 10 µM in series [2]; more than 10 µM in series [3] (setting [8]); more than 10 µM in series [4]; 5 to 10 µM in series [5]; more than 10 µM in series [6] (setting [10]).
